The test deals with senescent IMR90 ER:RAS cells (4-OHT-induced). In words: Nuclei count (Hoechst, high content imaging) senolytic assay, oncogene-induced senescence (OIS) model, senescent cells. It counts as cell-based, human. Conditions: for senolytic activity (in words): experimental screen. The source says: To test for senolytic activity, we compared the effect of each compound on the total cell number (automated high content image-based analysis of total number of nuclei per well) in non-senescent and senescent IMR90 ER:RAS cultures treated with the top hits from the computational screen (Figs. 2e and 3a–d and Supplementary Fig. 4a–c). The drop in cell number compared to untreated controls is indicated by the nuclei count and reflects cell death[13],[15]. As positive control, we employed ouabain, a cardiac glycoside with well characterised senolytic activity.
We performed experimental validation of the compounds with z-score > 8 (Fig. 2e). […] We employed two cellular models of senescence: one of OIS and a second one of TIS. For the OIS case, we utilised IMR90 ER:RAS cells with 4-OHT at 100 nM. […] For the TIS model, we used A549 cells with etoposide at 100 μM. The exposure of the cells to etoposide lasted 48 h, after which period the cells were cultivated for a further three days with normal media.
IMR90 (CCL-186) human foetal lung fibroblasts and A549 (CCL-185) human lung adenocarcinoma cells were obtained from the American Type Culture Collection (ATCC, Manassas, VA). The cell lines were confirmed to be mycoplasma negative (Lonza MycoAlert, cat #LT07-118). IMR90 ER:RAS is a derivative of IMR90 cells expressing a switchable version of oncogenic H-Ras[84]. IMR90 ER:RAS and A549 cells were maintained in Dulbecco’s Modified Eagle Medium (DMEM, ThermoFisher) supplemented with foetal bovine serum (10%), L-glutamine (2 mM, ThermoFisher), and antibiotic-antimycotic solution (1%, ThermoFisher) and incubated under standard tissue culture conditions (37 °C and 5% CO2). For induction of the senescent phenotype, IMR90-ER:RAS cells were cultured in hydroxytamoxifen (4-OHT) (Sigma) added media at 100 nM final concentration. IMR90 were kept in culture for over 27 passages for replicative senescence. Cells were tested for mycoplasma on a regular basis.
Cells were seeded (50 μL per well) into 384-well plates (IMR90 ER:RAS cells in Nunc Optical Bottom Polybase Microplates [#142761, Thermo Scientific, Rochester, NY] and A549 cells in CELLSTAR Cell Culture Microplates [#781091, Greiner Bio-One, Kremsmünster, Austria]). Cells were incubated under standard tissue culture conditions for 24 h before the addition of compounds. Passage 14 IMR90 ER:RAS cells were seeded at 1300 cells per well in the control condition, and at 1600 cells per well in the senescent case. Passage 34 A549 cells were seeded at 7000 cells per well in the control condition, and at 10,000 cells per well in the senescent case.
Dose response plates were prepared with a DMSO control and a 10-point […] concentration range, and added to the compounds using a D300e digital dispenser (Tecan Trading AG, Switzerland) at a final concentration of between 10 μM and 10 nM. Every screened condition was carried out in triplicate. After 72 h of incubation with exposure to the compounds, cells were fixed by the addition of an equal volume of formaldehyde (8%, 50 μL; #BP531-500, Fisher Bioreagents, Fisher Scientific, Loughborough, Leicestershire) to the existing media, incubated at room temperature (30 min), and washed three times in phosphate-buffered saline (PBS). Cells were then permeabilised in Triton-X100 (0.1%, 50 μL) and incubated at room temperature (30 min) followed by three more washes with PBS.
Cells were stained with Hoechst 33342 for nuclei count (excitation/emission wavelength at 387/447 […], DAPI channel, original concentration at 10 mg/ml, final concentration at 2 μg/ml; H1399, Molecular Probes, Eugene, OR). The staining solution was prepared in bovine serum albumin solution (10%). The staining solution was added to each well (30 μL) and incubated in the dark at room temperature (30 min), followed by three washes with PBS and no final aspiration. Plates were foil sealed.

Setting [1] is: Homo sapiens, IMR-90, 72 h, Senescent, log (dose) [M] -5, 72 h, mean n=3 (Fig 3C), read-out: Mean % Cell Survival.
The mark [2] stands for this setting: Homo sapiens, IMR-90, 72 h, Senescent, log (dose) [M] -5.33, 72 h, mean n=3 (Fig 3C), read-out: Mean % Cell Survival.
The mark [3] stands for this setting: Homo sapiens, IMR-90, 72 h, Senescent, log (dose) [M] -5.66, 72 h, mean n=3 (Fig 3C), read-out: Mean % Cell Survival.
Where [4] appears, read: Homo sapiens, IMR-90, 72 h, Senescent, log (dose) [M] -6, 72 h, mean n=3 (Fig 3C), read-out: Mean % Cell Survival.
Setting [5] is: Homo sapiens, IMR-90, 72 h, Senescent, log (dose) [M] -6.33, 72 h, mean n=3 (Fig 3C), read-out: Mean % Cell Survival.
Where [6] appears, read: Homo sapiens, IMR-90, 72 h, Senescent, log (dose) [M] -6.66, 72 h, mean n=3 (Fig 3C), read-out: Mean % Cell Survival.
The mark [7] stands for this setting: Homo sapiens, IMR-90, 72 h, Senescent, log (dose) [M] -7, 72 h, mean n=3 (Fig 3C), read-out: Mean % Cell Survival.
[8] abbreviates: Homo sapiens, IMR-90, 72 h, Senescent, log (dose) [M] -7.33, 72 h, mean n=3 (Fig 3C), read-out: Mean % Cell Survival.
Where [9] appears, read: Homo sapiens, IMR-90, 72 h, Senescent, log (dose) [M] -7.66, 72 h, mean n=3 (Fig 3C), read-out: Mean % Cell Survival.
The mark [10] stands for this setting: Homo sapiens, IMR-90, 72 h, Senescent, log (dose) [M] -8, 72 h, mean n=3 (Fig 3C), read-out: Mean % Cell Survival.
The mark [11] stands for this setting: Homo sapiens, IMR-90, Senescent cells, log (dose) [M] -7.33, individual replicates, SUP FIG 4C, read-out: % Cell Survival.
Where [12] appears, read: Homo sapiens, IMR-90, Senescent cells, log (dose) [M] -7.66, individual replicates, SUP FIG 4C, read-out: % Cell Survival.
[13] abbreviates: Homo sapiens, IMR-90, Senescent, log (dose) [M] -7.66, read-out: % Cell Survival.
[14] abbreviates: Homo sapiens, IMR-90, Senescent, log (dose) [M] -5.66, read-out: % Cell Survival.
Where [15] appears, read: Homo sapiens, IMR-90, Senescent, log (dose) [M] -6, read-out: % Cell Survival.
The mark [16] stands for this setting: Homo sapiens, IMR-90, Senescent, log (dose) [M] -8, read-out: % Cell Survival.

Each structure is given as a SMILES string. Where two headings read alike, the source gives them in different places.

What is called IC50 is the concentration that gives 50% inhibition. Read a high IC50 as lower potency. `COc1cc(O)c2c(=O)cc(-c3ccc(OC)c(-c4c(O)cc(O)c5c(=O)cc(-c6ccc(O)cc6)oc45)c3)oc2c1` [Ginkgetin, ginkgetin]: the viability at 10 µM runs as follows: under setting [1], 5.11%; (Homo sapiens, IMR-90, senescence, log (dose) [M] -5, individual replicates (Fig 3D), read-out: % Cell Survival) 4.7%. Moreover, under setting [2], the viability at 4.677 µM worked out at 9.69%. Besides, the viability at 2.188 µM is, setting by setting: under setting [3], 80%; (Homo sapiens, IMR-90, senescence, log (dose) [M] -5.66, individual replicates (Fig 3D), read-out: % Cell Survival) 71.2%. The viability at 1 µM under setting [4] came to 93.5%. Moreover, the viability at 0.4677 µM under setting [5] was found to be 108%. Further, the viability at 0.2188 µM under setting [6] is 95.6%. The viability at 0.1 µM under setting [7] was found to be 105%. The viability at 0.04677 µM by setting is: under setting [8], 113%; (Homo sapiens, IMR-90, senescence, log (dose) [M] -7.33, individual replicates (Fig 3D), read-out: % Cell Survival) 116%. In addition, the viability at 0.02188 µM under setting [9] worked out at 105%. Also, under setting [10], the viability at 0.01 µM was found to be 110%. Further, for the setting “Homo sapiens, IMR-90, OIS model, 4-OHT-induced IMR90 ER:RAS, nuclei count, 72 h”, inhibition was half-maximal at 2.6 µM (IC50). Moreover, the “dose showing the clearest senolytic effect” value (OIS IMR90 ER:RAS, Hoechst nuclei count, marginal effect on normal cells) was determined as 4.6 µM. Where the note is “OIS IMR90 ER:RAS”, the “senolytic activity (in words)” value is given as “clear senolytic action”.
In the case of `Cc1cc2c(C(C)C)c(O)c(O)c(C=O)c2c(O)c1-c1c(C)cc2c(C(C)C)c(O)c(O)c(C=O)c2c1O` [Gossypol, gossypol], the viability at 10 µM under setting [1] stood at 26.6%. Under setting [2], the viability at 4.677 µM was determined as 121%. Further, under setting [3], the viability at 2.188 µM is 156%. The viability at 1 µM under setting [4] came out at 166%. Besides, the viability at 0.4677 µM under setting [5] stood at 168%. Besides, the viability at 0.2188 µM by setting is: under setting [6], 188%; (Homo sapiens, IMR-90, Senescent cells, log (dose) [M] -6.66, individual replicates, SUP FIG 4C, read-out: % Cell Survival) 189%. Under setting [7], the viability at 0.1 µM is 130%. Also, the viability at 0.04677 µM came out at 120% under setting [8] and 127% under setting [11]. Further, the viability at 0.02188 µM under setting [9] was 145%. In addition, the viability at 0.01 µM under setting [10] is 116%.
In the case of `O=c1c(O)c(-c2ccc(O)cc2)oc2c(O)c(O)cc(O)c12` [Herbacetin, herbacetin], the viability at 10 µM under setting [1] was 103%. The viability at 4.677 µM under setting [2] amounted to 98.4%. In addition, the viability at 2.188 µM under setting [3] is 76.1%. Moreover, the viability at 1 µM under setting [4] is 71.6%. In addition, the viability at 0.4677 µM runs as follows: under setting [5], 91.9%; (Homo sapiens, IMR-90, Senescent cells, log (dose) [M] -6.33, individual replicates, SUP FIG 4C, read-out: % Cell Survival) 94.7%. Further, under setting [6], the viability at 0.2188 µM amounted to 84.1%. Also, the viability at 0.1 µM under setting [7] amounted to 95.7%. In addition, the viability at 0.04677 µM is, setting by setting: under setting [8], 90.5%; under setting [11], 85.5%. For the same molecule, the viability at 0.02188 µM under setting [9] was found to be 97.8%, the viability at 0.02188 µM under setting [12] was determined as 100% and the viability at 0.02188 µM under setting [13] worked out at 104%. Moreover, the viability at 0.01 µM is, setting by setting: under setting [10], 97.5%; (Homo sapiens, IMR-90, Senescent cells, log (dose) [M] -8, individual replicates, SUP FIG 4C, read-out: % Cell Survival) 91.5%. In addition, the “senolytic activity (in words)” value (OIS IMR90 ER:RAS) is “inactive”.
Take `O=c1c(O)c(-c2ccc(O)cc2O)oc2cc(O)cc(O)c12` [Morin, morin]: the viability at 10 µM reads like this: under setting [1], 75%; (Homo sapiens, IMR-90, Senescent cells, log (dose) [M] -5, individual replicates, SUP FIG 4C, read-out: % Cell Survival) 75.9%. Besides, the viability at 4.677 µM under setting [2] was 90.7%. For the same molecule, the viability at 2.188 µM reads like this: under setting [3], 96.2%; under setting [14], 55.7%. The viability at 1 µM reads like this: under setting [4], 91.1%; under setting [15], 62.4%. Further, the viability at 0.4677 µM under setting [5] turned out to be 91.7%. The viability at 0.2188 µM was found to be 92.4% under setting [6] and 63.2% (Homo sapiens, IMR-90, Senescent, log (dose) [M] -6.66, read-out: % Cell Survival). Further, the viability at 0.1 µM under setting [7] is 96.6%. In addition, the viability at 0.04677 µM was 95.3% under setting [8] and 87% under setting [11]. Besides, the viability at 0.02188 µM is, setting by setting: under setting [9], 92.3%; under setting [12], 91.1%; under setting [13], 95.7%. Also, the viability at 0.01 µM turned out to be 94.2% under setting [10] and 93.7% under setting [16]. Moreover, where the note is “OIS IMR90 ER:RAS”, the “senolytic activity (in words)” value was “inactive”.
Take `Cc1cnc(C(=O)N[C@H]2CCCCC/C=C\[C@@H]3C[C@@]3(C(=O)NS(=O)(=O)C3CC3)NC(=O)[C@@H]3C[C@@H](Oc4nc5ccccc5c5ccccc45)CN3C2=O)cn1` [Paritaprevir, paritaprevir, reference compound]: the viability at 10 µM is, setting by setting: under setting [1], 69.5%; (Homo sapiens, IMR-90, Senescent, log (dose) [M] -5, read-out: % Cell Survival) 115%. For the same molecule, the viability at 4.677 µM reads like this: under setting [2], 86.5%; (Homo sapiens, IMR-90, Senescent cells, log (dose) [M] -5.33, individual replicates, SUP FIG 4C, read-out: % Cell Survival) 87.6%; (Homo sapiens, IMR-90, Senescent, log (dose) [M] -5.33, read-out: % Cell Survival) 110%. Also, the viability at 2.188 µM by setting is: under setting [3], 70.9%; under setting [14], 113%. For the same molecule, the viability at 1 µM reads like this: under setting [4], 67.9%; under setting [15], 105%. The viability at 0.4677 µM under setting [5] came out at 78.9% and the viability at 0.4677 µM (Homo sapiens, IMR-90, Senescent, log (dose) [M] -6.33, read-out: % Cell Survival) amounted to 111%. Moreover, the viability at 0.2188 µM under setting [6] is 76.2%. Moreover, the viability at 0.1 µM runs as follows: under setting [7], 79.8%; (Homo sapiens, IMR-90, Senescent cells, log (dose) [M] -7, individual replicates, SUP FIG 4C, read-out: % Cell Survival) 75%; (Homo sapiens, IMR-90, Senescent, log (dose) [M] -7, read-out: % Cell Survival) 112%. Further, the viability at 0.04677 µM was 84.7% under setting [8] and 118% (Homo sapiens, IMR-90, Senescent, log (dose) [M] -7.33, read-out: % Cell Survival). Further, under setting [9], the viability at 0.02188 µM is 86.9%. The viability at 0.01 µM reads like this: under setting [10], 70.3%; under setting [16], 107%.

(Values after publication PMC10257182, “Discovery of senolytics using machine learning” (Nature Communications, 2023).)
